Source: patent US20050038113A1, “Valproic acid and derivatives for the combinatorial therapeutic treatment of human cancers and for the treatment of tumor metastasis and minimal residual disease” (G2M Cancer Drugs AG, priority 2001, published 2005)

How the values were obtained:
[1] = tested on: A-549 non-small cell lung cancer cells; experiment: SRB-assay, reduction in total cellular biomass; type: cell-based, human; conditions: 0.75 mM VPA in combination with Gemcitabine, 48 hours, compared to either alone
Protocol: (§1) The reduction in cellular biomass was measured by SRB-assay. For this assay cells were seeded in 96 well culture dishes at densities between 3000 and 8000 cells per well. […] Cultures were fixed with cold TCA producing a final TCA concentration of 10%. After 1 hour of incubation at 4° C. the cells were washed five times with water and air dried. Fixed cells were stained for 30 minutes with 0,4% (wt/vol) Sulforhodamine B (SRB) dissolved in 1% acetic acid and washed four times with 1% acetic acid to remove unbound dye. After air drying bound dye was solubilized with 10 mM unbuffered Tris base (pH 10,5) for 5 minutes. Optical densities were read on a Titertek Multiskan Plus spectrophotometric plate reader at 550 nm. Six test wells for each dose-response were set in parallel with 12 growth control wells per cell line. A measure of the cell population density at time 0 (To; the time at which the drug was added) was also made from 12 extra reference wells of cells fixed with TCA just prior to drug addition to the test plates. Background OD of complete medium with 5% FBS fixed and stained as described above was also determined in 12 separate wells. From the unprocessed OD data from each microtiter plate the background OD measurements (i.e. OD of complete medium plus stain and OD of cells at T0) were subtracted thus giving the reduction of cellular biomass of the cells.

[2] = tested on: COLO320DM colon cancer cells; experiment: SRB-assay, reduction in total cellular biomass; type: cell-based, human; conditions: 0.75 mM VPA in combination with Camptothecin, 48 hours
Protocol: as §1

[3] = tested on: SKOV3 ovarian carcinoma cells; experiment: MTT cell viability assay; type: cell-based, Human; conditions: 40 h
Protocol: Human SKBR3 breast carcinoma cells, A431 squamous cell carcinoma cells and SKOV3 ovarian carcinoma cells were maintained in Dulbecco's modified Eagle's medium (DMEM, BioWhittaker, Verviers, Belgium) supplemented with 10% heat-inactivated fetal bovine serum (FBS), 2 mM L-glutamine, 100 units/ml penicillin, and 100 μg/ml streptomycin.
Tumor cells were seeded in 96 well plates at a density of 1×10^4 cells/well in normal growth medium. SKBR3, A431 and SKOV3 cells were treated for 40 h with valproic acid at a final concentration of 3 mM, or 10 ng/ml of the recombinant anti-ErbB2 single chain antibody-toxin scFv(FRP5)-ETA (Wels et al., Cancer Res. 52: 6310-6317, 1992), or 10 ng/ml of the recombinant anti-EGF receptor single chain antibody-toxin scFv(14E1)-ETA (Schmidt et al., Brit. J. Cancer 75: 1575-1584, 1997), or a combination of valproic acid with either scFv(FRP5)-ETA or scFv(14E1)-ETA at the same concentrations. […] After solubilization of the formazan product, the absorption at 590 nm was determined in a microplate reader (Dynatech, Denkendorf, Germany) and the relative amount of viable cells in comparison to cells cultured without the addition of valproic acid or antibody-toxins was calculated.

[4] = tested on: Renca-lacZ/EGFR renal carcinoma cells; experiment: MTT cell viability assay; type: cell-based, Mouse; conditions: 40 h
Source text: (§2) Renal cell carcinoma (Renca) cells stably transfected with plasmid pZeoSV2/lacZ encoding E. coli β-galactosidase, and either with plasmids pSV2ErbB2N and pSV2neo encoding c-erbB2 and neomycin resistance (Renca-lacZ/ErbB2) (Maurer-Gebhard et al., Cancer Res. 58: 2661-2666, 1998), or plasmids pLTR-EGFR or pLTR-EGFRvIII and pSV2neo encoding epidermal growth factor (EGF) receptor, the oncogenically activated EGF receptor variant EGFRvIII, and neomycin resistance (Renca-lacZ/EGFR and Renca-lacZ/EGFRvIII) (Schmidt et al., Oncogene 18: 1711-1721, 1999) were grown in RPMI-1640 medium supplemented with 8% FBS, 2 mM L-glutamine, 100 U/ml penicillin, 100 μg/ml streptomycin, 0.25 mg/ml Zeocin and 0.48 mg/ml G418.
(§3) Tumor cells were seeded in 96 well plates at a density of 1×10^4 cells/well in normal growth medium. SKBR3, A431 and SKOV3 cells were treated for 40 h with valproic acid at a final concentration of 3 mM, or 10 ng/ml of the recombinant anti-ErbB2 single chain antibody-toxin scFv(FRP5)-ETA (Wels et al., Cancer Res. 52: 6310-6317, 1992), or 10 ng/ml of the recombinant anti-EGF receptor single chain antibody-toxin scFv(14E1)-ETA (Schmidt et al., Brit. J. Cancer 75: 1575-1584, 1997), or a combination of valproic acid with either scFv(FRP5)-ETA or scFv(14E1)-ETA at the same concentrations. Renca-lacZ/ErbB2, Renca-lacZ/EGFR and Renca-lacZ/EGFRvIII cells were treated for 40 h with valproic acid at a final concentration of 1 mM, or 10 ng/ml of the recombinant anti-ErbB2 single chain antibody-toxin scFv(FRP5)-ETA, or 1 ng/ml of the recombinant anti-EGF receptor single chain antibody-toxin scFv(14E1)-ETA, or a combination of valproic acid with either scFv(FRP5)-ETA or scFv(14E1)-ETA at the same concentrations. Control cells were grown in the absence of valproic acid or antibody-toxins. Ten μl of 10 mg/ml 3-(4,5-dimethylthiazole-2-yl)-2,5 diphenyltetrazolium bromide (MTT) (Sigma, Deisenhofen, Germany) in PBS were added to each well and the cells were incubated for another 3 h. Cells were lysed by the addition of 90 μl of lysis buffer (20% SDS in 50% dimethyl formamide, pH 4.7). After solubilization of the formazan product, the absorption at 590 nm was determined in a microplate reader (Dynatech, Denkendorf, Germany) and the relative amount of viable cells in comparison to cells cultured without the addition of valproic acid or antibody-toxins was calculated.

[5] = tested on: Renca-lacZ/EGFRvIII renal carcinoma cells; experiment: MTT cell viability assay; type: cell-based, Mouse; conditions: 40 h
Source text: as §2, §3

[6] = tested on: Renca-lacZ/ErbB2 renal carcinoma cells; experiment: MTT cell viability assay; type: cell-based, Mouse; conditions: 40 h
Source text: as §2, §3

[7] = tested on: PML-RAR expressing murine hematopoietic progenitors (lin-); experiment: myeloid differentiation (Mac-1, FACS) of transduced hematopoietic progenitors; type: cell-based; conditions: VPA 1 mM with cytokines (IL3, IL6, SCF, G-CSF, GM-CSF), 8-10 days
Protocol: Murine hematopoietic progenitors (lin-) were transduced with a retroviral vector encoding PML-RAR, and GFP as a marker. […] Myeloid differentiation was scored by analyzing the presence of the differentiation marker Mac-1.
Lin- cells were grown for 48 hours in the presence of IL-3 (20 ng/ml), IL-6 (20 ng/ml), SCF (100 ng/ml), and then attached to non-tissue culture treated plates coated with Retronectin (Takara-Shuzo). Cells were then transduced by incubation with the supernatant from Phoenix ecotropic packaging cells (supplemented with fresh serum, and IL-3, IL-6, and SCF as above), transiently transfected with the control retroviral vector PINCO, or PINCO-PML-RAR. After 60 hours, GFP+cells were sorted by FACS, and seeded in methylcellulose plates supplemented as above, plus G-CSF (60 ng/ml) and GM-CSF (20 ng/ml). […] After 8-10 days, cells were analyzed for the presence of the myeloid differentiation marker Mac-1 by FACS.
Differentiation was assessed after 8-10 days by analysis of the myeloid differentiation marker Mac-1.

[8] = tested on: wild-type cells (hematopoietic progenitor cells); experiment: X-ray sensitivity, colonies in methylcellulose; type: cell-based, Murine; conditions: VPA 1 mM, X-ray 2 Gy
Protocol: Lin- cells were transduced as described for FIG. 11 (see also methods in example 10 for details), and sorted by FACS. 12 hours after sorting, cells were washed with PBS, and then incubated for 8-12 hours in medium with cytokines [data presented in FIG. 12 using IL-3 (20 ng/ml), IL-6 (20 ng/ml), SCF (100 ng/ml), G-CSF (60 ng/ml), GM-CSF (20 ng/ml)] or without cytokines (data not shown). […] Finally, cells were plated in methylcellulose containing medium (StemCell Technologies) in the presence of cytokines (IL3, IL6, SCF, G- and GM-CSF) for 8-10 days. For FIG. 12 uninfected cells (“Control”), or cells expressing GFP alone (“Empty Vector”), or cells expressing GFP and PML-RAR (“PML-RAR”) were used. 8 days after plating in methylcellulose, the total number of colonies was measured.

[9] = tested on: mouse embryos; conditions: when properly dosed; cited from earlier work
[10] = 1 mM valproic acid + 1 ng/ml scFv(14E1)-ETA
[11] = single reagent, valproic acid 1 mM, scFv(14E1)-ETA 1 ng/ml

## CCCC(CCC)C(=O)O [VPA, 2-propylpentanoic acid]
[1]
  reduction in cellular biomass: clear additive reduction in cellular biomass
[2]
  reduction in cellular biomass: clear reduction in cellular biomass
[3]; 3 mM valproic acid + 10 ng/ml scFv(FRP5)-ETA
  cell viability, combination treatment: pronounced additive therapeutic effect
[3]; single reagent, valproic acid 3 mM, scFv(FRP5)-ETA 10 ng/ml
  cell viability: inhibit the viability
[4]; [10]
  cell viability, combination treatment: pronounced additive therapeutic effect
[4]; [11]
  cell viability: inhibit the viability
[5]; [10]
  cell viability, combination treatment: pronounced additive therapeutic effect
[5]; [11]
  cell viability: inhibit the viability
[6]; 1 mM valproic acid + 10 ng/ml scFv(FRP5)-ETA
  cell viability, combination treatment: pronounced additive therapeutic effect
[6]; single reagent, valproic acid 1 mM, scFv(FRP5)-ETA 10 ng/ml
  cell viability: inhibit the viability
[7]
  differentiation block imposed by PML-RAR (Mac-1): almost completely reverted the differentiation block
[8]
  X-ray sensitivity: slightly decreased the sensitivity
[9]
  teratogenicity: teratogenic in the majority of mouse embryos
